Reference: ChEMBL document CHEMBL5465560, “Selectivity Literature for EUbOPEN Chemogenomic Library” (2024)
Blank lines part the entries; values can stand above or below the compound they belong to.

Experiments:
[1] = molecular target: Wee1-like protein kinase 2 (Homo sapiens) (UniProt P0C1S8); assay: Selectivity interaction (KinomeScan (DiscoverX)) EUB0000618a WEE2; conditions: at 10 µM
[2] = molecular target: T1, Serine/threonine-protein kinase D1 (Homo sapiens) (UniProt Q15139); assay: Selectivity interaction (KinomeScan (DiscoverX)) EUB0001619a PRKD1; conditions: at 1 µM
T1 sequence (whole entry): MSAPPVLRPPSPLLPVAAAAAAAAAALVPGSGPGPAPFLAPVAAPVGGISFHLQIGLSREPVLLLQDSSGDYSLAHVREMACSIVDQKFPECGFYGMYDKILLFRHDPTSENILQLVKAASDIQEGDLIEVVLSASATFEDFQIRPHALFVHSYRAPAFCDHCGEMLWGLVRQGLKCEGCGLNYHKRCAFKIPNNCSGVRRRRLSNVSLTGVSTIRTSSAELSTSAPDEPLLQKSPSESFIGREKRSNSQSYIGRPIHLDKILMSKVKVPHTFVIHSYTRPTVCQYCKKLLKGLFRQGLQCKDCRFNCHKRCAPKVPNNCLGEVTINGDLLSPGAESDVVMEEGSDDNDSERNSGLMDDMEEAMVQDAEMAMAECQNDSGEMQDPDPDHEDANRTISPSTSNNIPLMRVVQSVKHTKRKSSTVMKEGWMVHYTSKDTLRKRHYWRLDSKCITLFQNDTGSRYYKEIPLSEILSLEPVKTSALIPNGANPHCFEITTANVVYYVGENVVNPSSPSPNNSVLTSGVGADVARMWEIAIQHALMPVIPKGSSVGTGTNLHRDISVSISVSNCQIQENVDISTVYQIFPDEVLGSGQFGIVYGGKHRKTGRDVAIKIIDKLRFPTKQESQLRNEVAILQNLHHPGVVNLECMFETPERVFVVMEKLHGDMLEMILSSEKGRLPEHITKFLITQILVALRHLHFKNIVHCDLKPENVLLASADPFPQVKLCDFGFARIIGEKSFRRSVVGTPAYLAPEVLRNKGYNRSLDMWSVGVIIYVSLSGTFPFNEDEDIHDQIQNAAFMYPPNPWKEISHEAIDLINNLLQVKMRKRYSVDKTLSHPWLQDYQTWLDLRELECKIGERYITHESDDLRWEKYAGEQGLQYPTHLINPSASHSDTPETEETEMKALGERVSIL

[3] = molecular target: T2, Phosphatidylinositol 4,5-bisphosphate 3-kinase catalytic subunit delta isoform (Homo sapiens) (UniProt O00329); assay: Selectivity interaction (ActivX KiNativ screen (kinase selectivity in THP-1 cell lysates)) EUB0000639a PIK3CD; assay type: subcellular; conditions: lysate
T2 sequence (whole entry): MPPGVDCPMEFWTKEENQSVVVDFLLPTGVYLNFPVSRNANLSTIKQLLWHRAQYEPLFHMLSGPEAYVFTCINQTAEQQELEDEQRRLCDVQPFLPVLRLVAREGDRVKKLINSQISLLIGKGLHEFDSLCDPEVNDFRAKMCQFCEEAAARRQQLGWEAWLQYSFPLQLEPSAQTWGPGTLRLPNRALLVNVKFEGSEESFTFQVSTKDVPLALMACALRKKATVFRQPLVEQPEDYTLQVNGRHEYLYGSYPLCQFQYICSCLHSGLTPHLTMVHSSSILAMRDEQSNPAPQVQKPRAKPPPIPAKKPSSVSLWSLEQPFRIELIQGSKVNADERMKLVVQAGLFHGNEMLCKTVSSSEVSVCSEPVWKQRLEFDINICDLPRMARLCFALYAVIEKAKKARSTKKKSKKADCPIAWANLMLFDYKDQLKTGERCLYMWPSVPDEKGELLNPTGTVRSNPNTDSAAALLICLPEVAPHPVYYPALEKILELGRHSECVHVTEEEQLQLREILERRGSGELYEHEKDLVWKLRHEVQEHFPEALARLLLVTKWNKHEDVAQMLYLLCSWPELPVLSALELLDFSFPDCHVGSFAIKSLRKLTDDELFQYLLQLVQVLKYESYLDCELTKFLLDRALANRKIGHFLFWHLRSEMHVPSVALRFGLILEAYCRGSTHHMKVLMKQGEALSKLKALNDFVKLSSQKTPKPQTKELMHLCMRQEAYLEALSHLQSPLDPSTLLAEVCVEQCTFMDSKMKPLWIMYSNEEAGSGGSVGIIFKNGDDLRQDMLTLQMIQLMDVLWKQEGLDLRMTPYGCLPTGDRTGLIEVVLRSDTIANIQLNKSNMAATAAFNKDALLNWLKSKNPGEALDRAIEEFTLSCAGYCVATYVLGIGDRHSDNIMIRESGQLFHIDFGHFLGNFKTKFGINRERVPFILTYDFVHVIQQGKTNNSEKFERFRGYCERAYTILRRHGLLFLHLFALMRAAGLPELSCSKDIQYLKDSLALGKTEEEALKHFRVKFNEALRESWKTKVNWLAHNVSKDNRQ

[4] = molecular target: T3, Serine/threonine-protein kinase BRSK2 (Homo sapiens) (UniProt Q8IWQ3); assay: Selectivity interaction (KinomeScan (DiscoverX)) EUB0001049a BRSK2; conditions: at 1 µM
T3 sequence (whole entry): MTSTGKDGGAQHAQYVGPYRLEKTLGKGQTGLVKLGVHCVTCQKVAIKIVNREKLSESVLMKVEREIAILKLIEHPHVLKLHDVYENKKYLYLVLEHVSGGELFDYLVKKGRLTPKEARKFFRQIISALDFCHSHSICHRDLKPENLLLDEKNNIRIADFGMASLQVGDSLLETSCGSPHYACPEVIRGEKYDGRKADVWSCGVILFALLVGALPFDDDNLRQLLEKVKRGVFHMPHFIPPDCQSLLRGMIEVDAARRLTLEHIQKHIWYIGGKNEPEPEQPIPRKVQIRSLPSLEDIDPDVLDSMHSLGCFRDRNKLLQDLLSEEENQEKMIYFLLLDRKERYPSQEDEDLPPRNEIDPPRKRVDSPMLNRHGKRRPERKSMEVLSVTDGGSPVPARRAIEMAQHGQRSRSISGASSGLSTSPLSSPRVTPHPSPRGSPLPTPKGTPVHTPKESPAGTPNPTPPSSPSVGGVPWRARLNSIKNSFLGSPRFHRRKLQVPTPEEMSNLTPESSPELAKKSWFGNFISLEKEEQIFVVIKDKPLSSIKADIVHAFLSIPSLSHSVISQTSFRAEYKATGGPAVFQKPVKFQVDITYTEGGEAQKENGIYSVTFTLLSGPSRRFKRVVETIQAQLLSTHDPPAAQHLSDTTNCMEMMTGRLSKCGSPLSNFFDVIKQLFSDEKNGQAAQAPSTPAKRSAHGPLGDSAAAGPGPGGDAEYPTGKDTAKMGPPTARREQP

[5] = molecular target: ALK tyrosine kinase receptor (Homo sapiens, UniProt Q9UM73); assay: Selectivity interaction (Kinase panel (Z-LYTE Assay)) EUB0001632a ALK; conditions: at 10 µM
Sequence of ALK tyrosine kinase receptor (Q9UM73 19-1620 limits assumed): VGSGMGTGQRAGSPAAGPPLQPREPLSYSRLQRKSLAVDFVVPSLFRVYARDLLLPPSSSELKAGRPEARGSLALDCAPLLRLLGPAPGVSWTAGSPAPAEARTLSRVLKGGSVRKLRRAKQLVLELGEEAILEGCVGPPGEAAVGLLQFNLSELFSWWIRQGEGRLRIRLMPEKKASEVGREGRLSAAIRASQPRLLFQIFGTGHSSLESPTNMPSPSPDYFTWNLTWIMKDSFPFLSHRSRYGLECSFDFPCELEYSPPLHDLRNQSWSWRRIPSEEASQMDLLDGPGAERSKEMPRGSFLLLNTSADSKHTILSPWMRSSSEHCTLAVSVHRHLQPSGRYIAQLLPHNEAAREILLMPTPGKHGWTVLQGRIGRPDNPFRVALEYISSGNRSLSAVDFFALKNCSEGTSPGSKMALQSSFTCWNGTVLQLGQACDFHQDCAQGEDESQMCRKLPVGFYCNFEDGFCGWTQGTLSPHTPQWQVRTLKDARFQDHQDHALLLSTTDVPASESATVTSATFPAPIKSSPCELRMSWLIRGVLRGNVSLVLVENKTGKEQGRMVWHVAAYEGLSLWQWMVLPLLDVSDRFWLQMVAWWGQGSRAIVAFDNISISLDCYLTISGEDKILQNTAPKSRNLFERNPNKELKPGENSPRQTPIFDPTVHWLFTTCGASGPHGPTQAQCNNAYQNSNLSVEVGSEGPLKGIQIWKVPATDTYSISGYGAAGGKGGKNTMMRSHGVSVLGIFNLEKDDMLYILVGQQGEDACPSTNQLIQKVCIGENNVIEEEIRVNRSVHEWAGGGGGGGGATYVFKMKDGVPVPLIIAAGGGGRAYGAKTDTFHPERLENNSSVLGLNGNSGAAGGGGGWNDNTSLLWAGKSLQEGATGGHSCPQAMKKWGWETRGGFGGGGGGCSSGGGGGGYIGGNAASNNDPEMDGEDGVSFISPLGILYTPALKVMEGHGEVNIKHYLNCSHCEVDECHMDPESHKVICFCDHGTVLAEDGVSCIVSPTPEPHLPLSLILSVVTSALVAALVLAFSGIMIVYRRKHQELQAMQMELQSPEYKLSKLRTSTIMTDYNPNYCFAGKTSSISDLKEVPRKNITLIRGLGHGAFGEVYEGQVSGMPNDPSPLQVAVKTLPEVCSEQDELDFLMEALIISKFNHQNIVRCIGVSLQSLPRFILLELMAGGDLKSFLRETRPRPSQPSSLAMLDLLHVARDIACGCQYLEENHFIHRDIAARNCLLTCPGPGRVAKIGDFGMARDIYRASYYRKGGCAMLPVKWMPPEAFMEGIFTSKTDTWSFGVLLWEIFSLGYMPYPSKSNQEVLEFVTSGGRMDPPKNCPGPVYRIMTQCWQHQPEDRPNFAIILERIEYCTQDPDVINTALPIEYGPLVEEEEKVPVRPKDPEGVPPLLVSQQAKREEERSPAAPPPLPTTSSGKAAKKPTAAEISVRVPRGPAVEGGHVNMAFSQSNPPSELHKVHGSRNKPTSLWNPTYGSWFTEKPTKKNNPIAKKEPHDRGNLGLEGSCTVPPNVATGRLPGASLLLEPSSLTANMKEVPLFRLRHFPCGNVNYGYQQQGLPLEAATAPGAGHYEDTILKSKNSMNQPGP

Sequence of Wee1-like protein kinase 2 (Homo sapiens) (P0C1S8 whole entry, looked up): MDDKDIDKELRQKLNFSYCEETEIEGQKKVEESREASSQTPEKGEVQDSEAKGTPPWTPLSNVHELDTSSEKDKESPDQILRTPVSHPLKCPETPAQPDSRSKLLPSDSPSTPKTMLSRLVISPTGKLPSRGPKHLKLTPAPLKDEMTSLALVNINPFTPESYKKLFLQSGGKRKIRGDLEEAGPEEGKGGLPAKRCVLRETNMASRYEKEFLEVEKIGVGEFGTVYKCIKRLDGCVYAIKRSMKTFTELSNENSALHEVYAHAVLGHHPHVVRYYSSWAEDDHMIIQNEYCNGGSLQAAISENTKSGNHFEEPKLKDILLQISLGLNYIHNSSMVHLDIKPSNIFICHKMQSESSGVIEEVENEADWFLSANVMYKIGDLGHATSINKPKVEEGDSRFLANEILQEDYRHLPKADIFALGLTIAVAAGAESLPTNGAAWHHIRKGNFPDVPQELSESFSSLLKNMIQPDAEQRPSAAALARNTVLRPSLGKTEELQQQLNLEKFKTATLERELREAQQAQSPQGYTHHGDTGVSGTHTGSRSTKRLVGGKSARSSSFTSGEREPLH

Structure (SMILES): O[C@H]1CC[C@H](Nc2ncc3nc(Nc4c(F)cc(F)cc4F)n([C@H]4CCOC4)c3n2)CC1
% of control [1]: 98%

Structure (SMILES): N#Cc1cccc(-c2c[nH]c3ncnc(N4CCOCC4)c23)c1
% of control [2]: 100%

% of inhibition ([3]; at 0.01 µM): -1.5%
% of inhibition ([3]; at 0.04 µM): -1.9%
% of inhibition ([3]; at 0.2 µM): -4.2%
% of inhibition ([3]; at 1 µM): 17.9%
% of inhibition ([3]; at 5 µM): 22.6%
Structure (SMILES): CC[C@@H]1[C@H](F)C(=O)N[C@@H]1COc1nccc2cc(C(N)=O)c(OC)cc12 [ZIMLOVISERTIB]

Structure (SMILES): COc1cc(Nc2nc(C)cc(-c3cnn4nc(OC)ccc34)n2)cc(C(F)(F)F)c1
% of control [4]: 94%

% of control [5]: -0.105%
Structure (SMILES): Cn1cc(-n2cnc3c(NCc4nc5cc(Cl)c(Cl)cc5[nH]4)nc(N4CCOCC4)nc32)cn1
